These results are taken from article doi:10.1101/2022.03.22.485260v1 (biorxiv, 2022).

For assay [1], the target named is T1, hTMPK (thymidylate kinase) (Homo sapiens, UniProt P23919).
T1 sequence (P23919 2-212): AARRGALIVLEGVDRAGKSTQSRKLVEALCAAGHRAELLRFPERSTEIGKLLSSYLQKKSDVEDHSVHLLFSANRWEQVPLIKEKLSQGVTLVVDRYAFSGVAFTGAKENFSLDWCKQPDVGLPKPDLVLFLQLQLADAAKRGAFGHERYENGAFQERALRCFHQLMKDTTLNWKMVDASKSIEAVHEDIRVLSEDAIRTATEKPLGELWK
Briefly: NADH-coupled. In kind it is biochemical.

The target in assay [2] is T1, hTMPK (thymidylate kinase). The assay is described as follows: NADH-coupled assay, […] min pre-incubation, non-linear fit. In kind it is biochemical. As to conditions: ATP varied 0-200 μM, 500 μM TMP; mixed inhibition; pH 7.5, 25 °C.

Where two headings read alike, the source gives them in different places.

As usually defined, the IC50 is the concentration that inhibits the measured activity by half. `CC(C)(C)OC(=O)N1CCN(C(=O)Cn2sc3ccccc3c2=O)CC1` [JMF2977] yielded an IC50 in assay [1] of 500 nM. By Ki is commonly meant a measure of affinity in units of concentration, obtained from inhibition or displacement. Read a high Ki as lower affinity. In assay [1] (500 μM ATP, 500 μM dTMP, 10 mM MgCl2, pH 7.5, 25 °C), “Tert-butyl 4-(2-(5-fluoro-3-oxobenzo[d]isothiazol-2(3H)-yl) acetyl) piperazine-1-carboxylate [JMF4073]” yielded an IC50 of 160 nM. The affinity in assay [2], expressed as Ki, was 5 nM.
